Earlier results as cited in patent publication US11833118B2 (priority 2016, dated 2023).

Tests used:
[1] = not given; remark: listed apart in the source

Row | Structure (SMILES) | crossing of the blood-brain barrier relative to Δ9THC (in vivo) | psychoactivity relative to Δ9THC (man) | Vapor Pressure at 25° C. [1] [mm Hg] | Vapor Pressure at 53.8° C. [1] [mm Hg]
1 | CCCCCc1cc(O)c2c(c1)OC(C)(C)[C@@H]1CCC(CO)=C[C@@H]21 [11-hydroxy-Δ9THC] | more rapidly crosses the blood-brain barrier | more psychoactive than Δ9THC |  | 
2 | O [Water] |  |  | 23.8 | 111.4
3 | C=C(C)[C@H]1CC=C(C)CC1 [d-Limonene] |  |  | 2.0 | 10
